Results from patent US11149033B2, “Heteroaryl compound, enantiomer, diastereomer or pharmaceutically acceptable salt thereof, and antiviral composition containing same as active ingredient” (priority 2016, dated 2021).
Where two headings read alike, the source gives them in different places.

Assays:
B/Florida/04/2006 = assay: Antiviral activity (drug efficacy evaluation by concentration) against B/Florida/04/2006; assay type: cell-based, B type influenza virus
[1] = test system: A/California/07/2009 (H1N1); assay: Antiviral activity (drug efficacy evaluation by concentration) against A/California/07/2009 (H1N1); assay type: cell-based, A type influenza virus; conditions: Influenza A virus
A/Perth/16/2009 (H3N2) = assay: Antiviral activity (drug efficacy evaluation by concentration) against A/Perth/16/2009 (H3N2); assay type: cell-based, A type influenza virus; conditions: Influenza A virus
[2] = read-out: EC50 B/Florida/04/2006, B/Florida/04/2006
[3] = H1N1, A/California/07/2009 (H1N1), read-out: EC50 A/California/07/2009 (H1N1)
[4] = H3N2, A/Perth/16/2009 (H3N2), read-out: EC50 A/Perth/16/2009 (H3N2)
[5] = CC50 B/Florida/04/2006, cytotoxicity in the B/Florida/04/2006 assay
[6] = CC50, third EC50/CC50 column pair (c7), beside the EC50 of c6

SMILES	EC50 (B/Florida/04/2006; [2]) [µM]	EC50 [1, 3] [µM]	EC50 (A/Perth/16/2009 (H3N2); [4]) [µM]	melting point [°C]	CC50 (in vitro; [5]) [µM]	EC50 (B/Florida/04/2006) [µM]	EC50 ([1]; H1N1, read-out: EC50) [µM]	EC50 (A/Perth/16/2009 (H3N2); H3N2, read-out: EC50) [µM]	CC50 (in vitro; CC50, beside the EC50 of c2) [µM]	CC50 (in vitro; CC50, beside the EC50 of c4) [µM]	CC50 (in vitro; [6]) [µM]
Brc1ccc(Nc2nnc(SCc3ccccc3-c3ccccc3)o2)cc1 [Compound 52, 5-(([1,1′-biphenyl]-2-ylmethyl)thio)-N-(4-bromophenyl)-1,3,4-oxadiazol-2-amine]	16.3	> 50	8.11	158.2	> 50						
Cc1ccccc1Sc1nnc(Cn2nc(C)c(Br)c2C)o1 [Compound 53, 2-((4-bromo-3,5-dimethyl-1H-pyrazol-1-yl)methyl)-5-(o-tolylthio)-1,3,4-oxadiazole]	8.94	0.12	8.57	103.6	7.91						
O=S(=O)(Cc1ccccc1-c1ccccc1)c1nnc(Cc2ccc(Br)cc2)o1 [Compound 60, 2-(([1,1′-biphenyl]-2-ylmethyl)sulfonyl)-5-(4-bromobenzyl)-1,3,4-oxadiazole]	4.11	12.1	6.36	134.2	8.46						
Cc1cc(Br)cc(C)c1Nc1nnc(SCc2ccccc2-c2ccccc2)o1 [Compound 61, 5-(([1,1′-biphenyl]-2-ylmethyl)thio)-N-(4-bromo-2,6-dimethylphenyl)-1,3,4-oxadiazol-2-amine]	2.3	2.3	2.61	211.2	4.02						
[O-][S+](Cc1ccccc1-c1ccccc1)c1nnc(Nc2ccc(Br)cc2)o1 (stereo not shown) [Compound 63, 5-(([1,1′-biphenyl]-2-ylmethyl)sulfinyl)-N-(4-bromophenyl)-1,3,4-oxadiazol-2-amine]	7.06	2.61	6.05	199	> 14.6						
O=C(c1ccccc1)c1nnc(Cc2ccc(Br)cc2)o1 [Compound 64, (5-(4-bromobenzyl)-1,3,4-oxadiazol-2-yl)(phenyl)methanone]	40.5	5.97	> 50	139.9	> 50						
Cc1cc(C)cc(Nc2nnc(SCc3ccccc3-c3ccccc3)o2)c1 [Compound 68, 5-(([1,1′-biphenyl]-2-ylmethyl)thio)-N-(3,5-dimethylphenyl)-1,3,4-oxadiazol-2-amine]	1.83	2.77	1.6	232.2	> 50						
c1ccc(Nc2nnc(SCc3ccccc3-c3ccccc3)o2)cc1 [Compound 71, 5-(([1,1′-biphenyl]-2-ylmethyl)thio)-N-phenyl-1,3,4-oxadiazol-2-amine]	22.8	21	14.2	172.1	6.53						
Cc1cccc(C)c1Nc1nnc(C(=O)c2ccccc2)o1 [Compound 76, (5-((2,6-dimethylphenyl)amino)-1,3,4-oxadiazol-2-yl)(phenyl)methanone]	> 50	14.1	14.1	236.1	> 50						
Cc1cccc(C)c1Nc1nnc(C(O)c2ccc(F)c(Cl)c2)o1 (stereo not shown) [Compound 79, (3-chloro-4-fluorophenyl)(5-((2,6-dimethylphenyl)amino)-1,3,4-oxadiazol-2-yl)methanol]	> 50	> 50	> 50	185.8	> 50						
CC(C)c1ccccc1CCc1nnc(Nc2ccc(Br)cc2)o1 [Compound 84, N-(4-bromophenyl)-5-(2-isopropylphenethyl)-1,3,4-oxadiazol-2-amine]				175.4		> 50	34.7	41.7	> 50	> 50	> 50
Cc1cccc(C)c1Nc1nnc(CCc2ccccc2C(C)C)o1 [Compound 85, N-(2,6-dimethylphenyl)-5-(2-isopropylphenethyl)-1,3,4-oxadiazol-2-amine]				234.1		> 50	> 50	> 50	> 50	> 50	> 50
Fc1ccc(/C=C/c2nnc(Cc3ccc(Br)cc3)o2)c(Cl)c1 [Compound 86, (E)-2-(4-bromobenzyl)-5-(2-chloro-4-fluorostyryl)-1,3,4-oxadiazole]				147.9		42	2.7	45.7	> 50	> 50	> 50
Fc1ccc(/C=C/c2nnc(Nc3ccc(Br)cc3)o2)c(Cl)c1 [Compound 87, (E)-N-(4-bromophenyl)-5-(2-chloro-4-fluorostyryl)-1,3,4-oxadiazol-2-amine]				218.7		2.52	2.74	1.97	> 50	> 50	> 50
Cc1ccccc1CCc1nnc(Nc2ccc(Br)c(F)c2)o1 [Compound 91, N-(4-bromo-3-fluorophenyl)-5-(2-methylphenethyl)-1,3,4-oxadiazol-2-amine]				151.6		19.3	9.13	8.3	6.03	15.7	6.63
Brc1ccc(Cc2nnc(/C=C/c3ccccc3C3CCCCC3)o2)cc1 [Compound 111, 2-(4-bromobenzyl)-5-(2-cyclohexylstyryl)-1,3,4-oxadiazole]				117.1		41.3	31.8	34.3	32.5	> 50	> 50
Brc1ccc(Nc2nnc(/C=C/c3ccccc3C3CCCCC3)o2)cc1 [Compound 116, (E)-N-(4-bromophenyl)-5-(2-cyclohexylstyryl)-1,3,4-oxadiazol-2-amine]				228.3		34.5	36.2	35.1	> 50	> 50	
COc1ccccc1/C=C/c1nnc(Nc2ccc(Br)cc2)o1 [Compound 120, (E)-N-(4-bromophenyl)-5-(2-methoxystyryl)-1,3,4-oxadiazol-2-amine]				232.4		17.4	23.1	18.1	> 50	> 50	
Cc1ccccc1CCc1nnc(Nc2ccc(F)c(Cl)c2)o1 [Compound 122, N-(3-chloro-4-fluorophenyl)-5-(2-methylphenethyl)-1,3,4-oxadiazol-2-amine]				87		> 50	37.4	43.9	> 50	> 50	
Cc1ccccc1CCc1nnc(Nc2ccc(C(F)(F)F)cc2)o1 [Compound 123, 5-(2-methylphenethyl)-N-(4-(trifluoromethyl)phenyl)-1,3,4-oxadiazol-2-amine]				164.5		11	14.2	3.61	35	> 50	> 50
Brc1ccc(Cc2nnc(/C=C/c3ccccc3-c3ccccc3)o2)cc1 [Compound 126, (E)-2-(2-([1,1′-biphenyl]-2-yl)vinyl)-5-(4-bromobenzyl)-1,3,4-oxadiazole]				87.4		> 50	45.7	> 50	> 50	> 50	> 50
